What was measured:
blackgrass [1] = assay: Test Example 5: herbicidal effect by foliage application, plastic box (Table 20, symbol J); type: in vivo, blackgrass (Alopecurus myosuroides); conditions: foliage application, 320 g/ha, three weeks after application
In short: (§1)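 Post-emergence foliar test in sterilized diluvial soil. Compound applied as water-diluted emulsion at a predetermined rate to 14-day-old plants; evaluation at three weeks.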

barnyard grass [2] = assay: Test Example 4: herbicidal effect by soil treatment (Table 19, symbol H); type: in vivo, barnyard grass (Echinochloa crus-galli); conditions: amount of applied herbicide 320 g/ha
In short: (§2)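 Scoring uses the grading scale of an earlier test, three weeks post-application. Treatment consists of spraying a diluted emulsion formulation across the surface of sterilized diluvial soil in which seeds are buried near 1.5 cm deep; boxes are kept in a greenhouse between 25° C. and 30° C.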

Japanese bulrush = assay: Test Example 1: herbicidal activity, application before weed generation under submerged conditions (Table 16, symbol B); type: in vivo, Japanese bulrush (Schoenoplectus juncoides); conditions: amount of applied herbicide 320 g/ha
In short: (§3)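 Submerged Wagner pots (alluvial soil, 4 cm water) sown with weed seeds and planted with 2.5-leaf rice seedlings; emulsifiable concentrate diluted in water applied to water surface on sowing day. Held in greenhouse at 25-30 °C; injury scored 0-5 by herbicidal rate after three weeks.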

Chinese sprangletop = assay: Test Example 3: herbicidal effect by foliage application, Wagner pot (Table 18, symbol D); type: in vivo, chinese sprangletop (Leptochloa chinensis); conditions: for herbicidal effect on Chinese sprangletop (D): 320 g/ha; for Herbicidal effect on D (Chinese sprangletop), foliage application: amount of applied herbicide 320 g/ha
In short: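 Plants were sown in alluvial soil held under 0.1–0.5 cm standing water and grown 14 days in a greenhouse at 25–30 °C. An emulsifiable formulation, water-diluted to the set dose, was then sprayed onto the foliage, and effects were scored three weeks later using previously defined criteria.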

redroot pigweed [3] = assay: Test Example 5: herbicidal effect by foliage application, plastic box (Table 20, symbol N); type: in vivo, redroot pigweed (Amaranthus retroflexus); conditions: foliage application, 320 g/ha, three weeks after application
In short: as §1

oval-leafed pondweed = assay: Test Example 1: herbicidal activity, application before weed generation under submerged conditions (Table 16, symbol C); type: in vivo, oval-leafed pondweed (Monochoria vaginalis); conditions: amount of applied herbicide 320 g/ha
In short: as §3

redroot pigweed [4] = assay: Test Example 4: herbicidal effect by soil treatment (Table 19, symbol N); type: in vivo, redroot pigweed (Amaranthus retroflexus); conditions: amount of applied herbicide 320 g/ha
In short: as §2

southern crabgrass = assay: Test Example 4: herbicidal effect by soil treatment (Table 19, symbol F); type: in vivo, southern crabgrass (Digitaria ciliaris); conditions: amount of applied herbicide 320 g/ha
In short: as §2

wild oat [5] = assay: Test Example 4: herbicidal effect by soil treatment (Table 19, symbol I); type: in vivo, wild oat (Avena fatua); conditions: amount of applied herbicide 320 g/ha
In short: as §2

chickweed = assay: Test Example 5: herbicidal effect by foliage application, plastic box (Table 20, symbol P); type: in vivo, common chickweed (Stellaria media); conditions: foliage application, 320 g/ha, three weeks after application
In short: as §1

lambsquarters = assay: Test Example 4: herbicidal effect by soil treatment (Table 19, symbol O); type: in vivo, lambsquarters (Chenopodium album); conditions: amount of applied herbicide 320 g/ha
In short: as §2

velvetleaf [6] = assay: Test Example 5: herbicidal effect by foliage application, plastic box (Table 20, symbol M); type: in vivo, velvetleaf (Abutilon theophrasti); conditions: foliage application, 320 g/ha, three weeks after application
In short: as §1

wild oat [7] = assay: Test Example 5: herbicidal effect by foliage application, plastic box (Table 20, symbol I); type: in vivo, wild oat (Avena fatua); conditions: foliage application, 320 g/ha, three weeks after application
In short: as §1

barnyard grass [8] = assay: Test Example 5: herbicidal effect by foliage application, plastic box (Table 20, symbol H); type: in vivo, barnyard grass (Echinochloa crus-galli); conditions: foliage application, 320 g/ha, three weeks after application
In short: as §1

velvetleaf [9] = assay: Test Example 4: herbicidal effect by soil treatment (Table 19, symbol M); type: in vivo, velvetleaf (Abutilon theophrasti); conditions: amount of applied herbicide 320 g/ha
In short: as §2

blackgrass [10] = assay: Test Example 4: herbicidal effect by soil treatment (Table 19, symbol J); type: in vivo, blackgrass (Alopecurus myosuroides); conditions: amount of applied herbicide 320 g/ha
In short: as §2

| SMILES | H: barnyard grass, herbicidal effect grade (barnyard grass [2]) | Herbicidal effect, B: Japanese bulrush (Japanese bulrush) | herbicidal effect on Chinese sprangletop (D) (Chinese sprangletop) | Herbicidal effect, C: oval-leafed pondweed (oval-leafed pondweed) | N: redroot pigweed, herbicidal effect grade (redroot pigweed [4]) | F: southern crabgrass, herbicidal effect grade (southern crabgrass) | I: wild oat, herbicidal effect grade (wild oat [5]) | O: lambsquarters, herbicidal effect grade (lambsquarters) | M: velvetleaf, herbicidal effect grade (velvetleaf [9]) | herbicidal effect on blackgrass (J) (blackgrass [1]) | J: blackgrass, herbicidal effect grade (blackgrass [10]) | herbicidal effect on velvetleaf (M) (velvetleaf [6]) | herbicidal effect on wild oat (I) (wild oat [7]) | herbicidal effect on barnyard grass (H) (barnyard grass [8]) | Herbicidal effect on D (Chinese sprangletop), foliage application (Chinese sprangletop) | other results |
| --- | --- | --- | --- | --- | --- | --- | --- | --- | --- | --- | --- | --- | --- | --- | --- | --- |
| C=CCOc1ccc2c(-c3c(O)c(C)nn(C)c3=O)c(-c3ccccc3OC)sc2c1 [3-111] | 4 (Herbicidal rate of 70% or more and less than 90%) | 5 (Herbicidal rate of 90% or more (almost completely withered)) | 3 (Herbicidal rate of 40% or more and less than 70%) | 5 (Herbicidal rate of 90% or more (almost completely withered)) | 5 (Herbicidal rate of 90% or more (almost completely withered)) | 5 (Herbicidal rate of 90% or more (almost completely withered)) | 3 (Herbicidal rate of 40% or more and less than 70%) | 5 (Herbicidal rate of 90% or more (almost completely withered)) | 3 (Herbicidal rate of 40% or more and less than 70%) | – | – | – | – | – | – | J: blackgrass, herbicidal effect grade (blackgrass [1]): 5 (Herbicidal rate of 90% or more (almost completely withered)); N: redroot pigweed, herbicidal effect grade (redroot pigweed [3]): 5 (Herbicidal rate of 90% or more (almost completely withered)); P: chickweed, herbicidal effect grade (chickweed): 5 (Herbicidal rate of 90% or more (almost completely withered)); M: velvetleaf, herbicidal effect grade (velvetleaf [6]): 5 (Herbicidal rate of 90% or more (almost completely withered)); I: wild oat, herbicidal effect grade (wild oat [7]): 4 (Herbicidal rate of 70% or more and less than 90%); H: barnyard grass, herbicidal effect grade (barnyard grass [8]): 5 (Herbicidal rate of 90% or more (almost completely withered)) |
| COc1ccccc1-c1sc2cc(C)c(C)cc2c1-c1c(O)c(C)nn(C)c1=O [5-090] | 0 (Herbicidal rate of 5% or less (almost no effect)) | 3 (Herbicidal rate of 40% or more and less than 70%) | 2 (Herbicidal rate of 20% or more and less than 40%) | 3 (Herbicidal rate of 40% or more and less than 70%) | 0 (Herbicidal rate of 5% or less (almost no effect)) | 0 (Herbicidal rate of 5% or less (almost no effect)) | 0 (Herbicidal rate of 5% or less (almost no effect)) | 0 (Herbicidal rate of 5% or less (almost no effect)) | 0 (Herbicidal rate of 5% or less (almost no effect)) | 4 (Herbicidal rate of 70% or more and less than 90%) | 0 (Herbicidal rate of 5% or less (almost no effect)) | 5 (Herbicidal rate of 90% or more (almost completely withered)) | 0 (Herbicidal rate of 5% or less (almost no effect)) | 4 (Herbicidal rate of 70% or more and less than 90%) | – | – |
| CCCC(=O)Oc1c(C)nn(C)c(=O)c1-c1c(-c2ccccc2OCC)sc2cc(C)c(C)cc12 [5-095] | 0 (Herbicidal rate of 5% or less (almost no effect)) | 4 (Herbicidal rate of 70% or more and less than 90%) | 5 (Herbicidal rate of 90% or more (almost completely withered)) | 4 (Herbicidal rate of 70% or more and less than 90%) | 0 (Herbicidal rate of 5% or less (almost no effect)) | 0 (Herbicidal rate of 5% or less (almost no effect)) | 0 (Herbicidal rate of 5% or less (almost no effect)) | 0 (Herbicidal rate of 5% or less (almost no effect)) | 0 (Herbicidal rate of 5% or less (almost no effect)) | 4 (Herbicidal rate of 70% or more and less than 90%) | 0 (Herbicidal rate of 5% or less (almost no effect)) | 4 (Herbicidal rate of 70% or more and less than 90%) | 3 (Herbicidal rate of 40% or more and less than 70%) | 4 (Herbicidal rate of 70% or more and less than 90%) | – | – |
| CCOc1cc(F)ccc1-c1sc2cc(C)c(C)cc2c1-c1c(O)c(C)nn(C)c1=O [5-103] | 1 (Herbicidal rate of 5% or more and less than 20%) | 4 (Herbicidal rate of 70% or more and less than 90%) | 4 (Herbicidal rate of 70% or more and less than 90%) | 4 (Herbicidal rate of 70% or more and less than 90%) | 2 (Herbicidal rate of 20% or more and less than 40%) | 4 (Herbicidal rate of 70% or more and less than 90%) | 0 (Herbicidal rate of 5% or less (almost no effect)) | 2 (Herbicidal rate of 20% or more and less than 40%) | 1 (Herbicidal rate of 5% or more and less than 20%) | 4 (Herbicidal rate of 70% or more and less than 90%) | 0 (Herbicidal rate of 5% or less (almost no effect)) | 5 (Herbicidal rate of 90% or more (almost completely withered)) | 4 (Herbicidal rate of 70% or more and less than 90%) | 5 (Herbicidal rate of 90% or more (almost completely withered)) | – | – |
| CCOc1ccccc1-c1sc2c(Cl)c(OCC)ccc2c1-c1c(O)c(C)nn(C)c1=O [7-004] | 3 (Herbicidal rate of 40% or more and less than 70%) | 3 (Herbicidal rate of 40% or more and less than 70%) | – | 0 (Herbicidal rate of 5% or less (almost no effect)) | 4 (Herbicidal rate of 70% or more and less than 90%) | 3 (Herbicidal rate of 40% or more and less than 70%) | 0 (Herbicidal rate of 5% or less (almost no effect)) | 4 (Herbicidal rate of 70% or more and less than 90%) | 3 (Herbicidal rate of 40% or more and less than 70%) | 5 (Herbicidal rate of 90% or more (almost completely withered)) | 0 (Herbicidal rate of 5% or less (almost no effect)) | 4 (Herbicidal rate of 70% or more and less than 90%) | 0 (Herbicidal rate of 5% or less (almost no effect)) | 5 (Herbicidal rate of 90% or more (almost completely withered)) | 5 (Herbicidal rate of 90% or more (almost completely withered)) | – |
| COc1ccccc1-c1sc2c(Cl)c(OC)ccc2c1-c1c(O)c(C)nn(C)c1=O [Compound No. 7-001, 4-(7-chloro-6-methoxy-2-(2-methoxyphenyl)benzo[b]thiophen-3-yl)-5-hydroxy-2,6-dimeth ylpyridazin-3-(2H)-one] | 3 (Herbicidal rate of 40% or more and less than 70%) | 3 (Herbicidal rate of 40% or more and less than 70%) | – | 2 (Herbicidal rate of 20% or more and less than 40%) | 5 (Herbicidal rate of 90% or more (almost completely withered)) | 0 (Herbicidal rate of 5% or less (almost no effect)) | 0 (Herbicidal rate of 5% or less (almost no effect)) | 5 (Herbicidal rate of 90% or more (almost completely withered)) | 3 (Herbicidal rate of 40% or more and less than 70%) | 4 (Herbicidal rate of 70% or more and less than 90%) | – | 5 (Herbicidal rate of 90% or more (almost completely withered)) | 0 (Herbicidal rate of 5% or less (almost no effect)) | 5 (Herbicidal rate of 90% or more (almost completely withered)) | 1 (Herbicidal rate of 5% or more and less than 20%) | – |

Reference: patent US20230085307A1, “PYRIDAZINONE COMPOUND AND HERBICIDE” (NISSAN CHEMICAL CORPORATION, priority 2019, published 2023)
